Data: PubChem BioAssay (NCI)
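Step 1: Grow cells in 96-well plates. Step 2: Expose to compound for 48 hours at 5 concentrations. Step 3: Interpolate endpoints linearly; if unreached, use highest concentration. GI50 marks 50% less growth. TGI: concentration producing complete growth inhibition.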

Columns and labels:
Assay in all cases: NCI anticancer screen, dose series, 48 h
HOP-62 NSCLC = test system: HOP-62 NSCLC
DMS 273 small cell lung = test system: DMS 273 small cell lung
MALME-3M melanoma = test system: MALME-3M melanoma
LXFL 529 NSCLC = test system: LXFL 529 NSCLC
SN12C renal = test system: SN12C renal
HOP-92 NSCLC = test system: HOP-92 NSCLC
DMS 114 small cell lung = test system: DMS 114 small cell lung
IGROV1 ovarian = test system: IGROV1 ovarian
DLD-1 colon = test system: DLD-1 colon
NCI-H522 lung = test system: NCI-H522 lung
DU-145 prostate = test system: DU-145 prostate
NCI/ADR-RES ovarian = test system: NCI/ADR-RES ovarian

SMILES	TGI (HOP-62 NSCLC) [µM]	TGI (DMS 273 small cell lung) [µM]	TGI (MALME-3M melanoma) [µM]	TGI (LXFL 529 NSCLC) [µM]	TGI (SN12C renal) [µM]	TGI (HOP-92 NSCLC) [µM]	TGI (DMS 114 small cell lung) [µM]	TGI (IGROV1 ovarian) [µM]	TGI (DLD-1 colon) [µM]	TGI (NCI-H522 lung) [µM]	GI50 (HOP-62 NSCLC) [µM]	GI50 (IGROV1 ovarian) [µM]	GI50 (NCI-H522 lung) [µM]	GI50 (DU-145 prostate) [µM]	TGI (DU-145 prostate) [µM]	GI50 (MALME-3M melanoma) [µM]	GI50 (NCI/ADR-RES ovarian) [µM]	TGI (NCI/ADR-RES ovarian) [µM]	GI50 (SN12C renal) [µM]	GI50 (HOP-92 NSCLC) [µM]
COc1cc(Nc2cnc3ccc(C(F)(F)F)cc3n2)cc(OC)c1OC	> 100	> 100	> 100	> 100	> 100	> 100	–	–	–	–	–	–	–	–	–	–	–	–	–	–
O=C(NC1C(=O)NNC1c1cccc([N+](=O)[O-])c1)c1ccccc1 (centres undefined)	> 100	–	> 100	> 100	> 100	> 100	> 100	> 100	> 100	–	–	–	–	–	–	–	–	–	–	–
C[C@]12CCC3[C@@H](CCC45OC4C(=O)CC[C@]35C)C1Cc1cnn(-c3ccc(F)cc3)c1N2 (some centres undefined)	> 100	38.9	> 100	> 100	48.4	–	50.5	–	–	34.8	–	–	–	–	–	–	–	–	–	–
c1ccc(-c2[nH]ncc2-c2ccnc(-c3ccc(OCCn4ccnc4)cc3)c2)nc1	> 25	–	> 25	–	> 25	> 25	–	> 25	–	> 25	> 25	> 25	> 25	> 25	> 25	12.2	> 25	> 25	> 25	> 25
O=C(Nc1ccc(N=C=S)cc1Cl)c1cc(Br)cc(Br)c1O	84.4	–	> 100	–	24.1	56	–	39.8	–	> 100	–	–	–	–	39.4	–	–	58	–	–
N#Cc1nc2c(S(=O)(=O)c3ccc(Cl)cc3)c(N)n(Nc3cccc(Cl)c3)c2nc1C#N	–	–	0.33	–	–	0.099	–	0.179	–	0.449	0.109	0.0385	0.11	–	> 100	0.0532	0.0505	> 100	0.033	–
Cc1ccc(O)cc1Nc1ccnc2ccc(S(C)(=O)=O)cc12	> 25	–	9.35	–	> 25	0.245	–	2.12	–	> 22.1	2.35	0.478	5.08	7.23	> 20.4	0.892	15.9	> 25	2.82	0.0327
COc1ccc2c(c1)C(=O)c1c-2c(Nc2ccccc2OC)nc2ccccc12	> 100	–	> 100	–	> 100	> 100	–	> 100	–	> 100	> 100	> 100	> 100	> 100	> 100	> 100	> 100	> 100	42.1	26.4
Cc1cc([N+](=O)[O-])c(C)c2c1[nH]c1ccc(Cl)cc12	> 100	> 100	> 100	–	> 100	–	> 100	–	–	46	–	–	–	–	–	–	–	–	–	–
COc1cc(CNc2nc3cc(N)cc(N)c3nc2-c2ccccc2)cc(OC)c1	31.3	–	33.8	–	> 100	3.31	–	55.7	–	23	13.5	8.62	2.88	29.7	> 100	4.86	5.47	33.2	11.4	1.15
N#C/C(=C\c1cc(OCc2ccccc2)c(OCc2ccccc2)cn1)C(N)=O	> 100	–	> 100	> 100	> 100	> 100	> 100	> 100	> 100	41.2	–	–	–	–	–	–	–	–	–	–
COc1ccc(C(=O)c2cc(OC)c(OC)c(OC)c2OC)cc1O	> 100	–	> 100	–	> 100	> 100	–	> 100	–	7.44	4.14	7.5	2.37	4.64	> 100	4.49	1.97	7.09	6.64	4.73
CCOC(=O)c1nc(C)oc1C(F)(F)F	> 100	–	> 100	> 100	> 100	> 100	> 100	> 100	> 100	> 100	–	–	–	–	–	–	–	–	–	–
N#CC1c2ccccc2C=CN1C(=O)CCCl (centres undefined)	40.6	–	4.01	–	34.9	3.76	–	13.8	–	2.92	19.8	6.68	1.52	9.04	21.9	2	23	66.3	15.6	1.53
O=C1c2cccc(Oc3ccccc3)c2C(=O)c2cccc(Oc3ccccc3)c21	> 100	–	> 100	–	> 100	51.2	–	> 100	–	> 100	5.05	> 100	> 100	> 100	> 100	> 100	> 100	> 100	> 100	8.98
Cc1cccc(NC(=O)c2sc3nc4c(cc3c2N)C(=O)CCC4)c1	> 43.7	–	16.9	–	> 63.8	> 74.9	–	> 60.8	–	1.68	0.425	0.68	0.124	0.302	> 30	0.311	0.259	> 49.8	0.74	1.8
COc1ccc(CNc2cnc3ccc(N)cc3n2)cc1	> 100	> 100	> 100	–	> 100	–	> 100	–	> 100	> 100	–	–	–	–	–	–	–	–	–	–
CCc1cccc(C)c1NC(=O)CCc1nc(=S)[nH][nH]1	> 100	–	> 100	> 100	> 100	> 100	> 100	> 100	> 100	> 100	–	–	–	–	–	–	–	–	–	–
